Experimental findings from ChEMBL document CHEMBL3862020, “A fluorescent analogue of tauroursodeoxycholic acid reduces ER stress and is cytoprotective” (Bioorg Med Chem Lett, 2016) are described below.

Each structure is given as a SMILES string. Activity calls are given as the source filed them. The rule behind the calls is not given here.

In data set [1] the test system is Huh-7. Nature of the data set: Cytoprotective activity against tunicamycin-induced ER stress in human HuH7 cells assessed as inhibition of BIP/GRP78 mRNA levels at 1mM after 6 hrs. Type of data set: functional, cell-based.
Data set [2] concerns Huh-7. Nature of the data set: Cytoprotective activity against tunicamycin-induced ER stress in human HuH7 cells assessed as reduction in XBPs/XBPu ratio after 6 hrs. The data set is classed as functional, cell-based.
The nature of data set [3]: Cytotoxicity against human HuH7 cells assessed as reduction in cell viability by MTT assay. The data set is classed as toxicity, cell-based. The following applies: huh-7. For orientation: Formazan colour is commonly taken as a measure of viable cells.
The test system of data set [4] is Huh-7. The data set is described as follows: Cytoprotective activity against DCA-induced ER stress in human HuH7 cells assessed as inhibition of XBPs mRNA levels after 6 hrs. Type of data set: functional, cell-based.
Data set [5] deals with Huh-7. Nature of the data set: Cytoprotective activity against DCA-induced cell death in human HuH7 cells assessed as increase in cell viability at 1 mM preincubated with cells followed by DCA addition measured after 24 hrs by MTT/INCELL assay. Type of data set: functional, cell-based.
Data set [6] deals with Huh-7. The data set is described as follows: Cytoprotective activity against tunicamycin-induced ER stress in human HuH7 cells assessed as inhibition of XBPs mRNA levels after 6 hrs. The data set is classed as functional, cell-based.
The test system of data set [7] is Huh-7. Nature of the data set: Cytoprotective activity against tunicamycin-induced ER stress in human HuH7 cells assessed as increase in XBPu mRNA levels after 6 hrs. Type of data set: functional, cell-based.
Data set [8] is described as follows: Cytotoxicity against HEK293 cells assessed as reduction in cell viability by MTT assay. The data set is classed as toxicity, cell-based. The following applies: human.
Data set [9] has as its system Huh-7. The data set is described as follows: Cytoprotective activity against tunicamycin-induced ER stress in human HuH7 cells assessed as inhibition of BIP/GRP78 mRNA levels after 6 hrs. Type of data set: functional, cell-based.
Data set [10] relates to Huh-7. Nature of the data set: Cytoprotective activity against tunicamycin-induced ER stress in human HuH7 cells assessed as inhibition of CHOP mRNA levels after 6 hrs. The data set is classed as functional, cell-based.
Data set [11] concerns Huh-7. The data set is described as follows: Cytoprotective activity against DCA-induced ER stress in human HuH7 cells assessed as increase in XBPu mRNA levels after 6 hrs. Type of data set: functional, cell-based.
Data set [12] relates to Huh-7. Nature of the data set: Cytoprotective activity against DCA-induced cell death in human HuH7 cells assessed as increase in cell viability at 500 uM preincubated with cells followed by DCA addition measured after 24 hrs by MTT/INCELL assay. The data set is classed as functional, cell-based.
In data set [13] the test system is Huh-7. The data set is described as follows: Cytoprotective activity against DCA-induced ER stress in human HuH7 cells assessed as inhibition of […] mRNA levels after 6 hrs. The data set is classed as functional, cell-based.

As for `C[C@H](CCC(=O)O)[C@H]1CC[C@H]2[C@@H]3[C@@H](O)C[C@@H]4C[C@H](O)CC[C@]4(C)[C@H]3CC[C@]12C`, the inhibition result in data set [1] was “Active”.

Turning to `C[C@H](CCC(=O)NCCS(=O)(=O)O)[C@H]1CC[C@H]2[C@@H]3[C@@H](O)C[C@@H]4C[C@H](O)CC[C@]4(C)[C@H]3CC[C@]12C` [TAURURSODIOL], the result in [2], in data set [5], in data set [7] and in [11] was Active. For the same compound, the Activity result in [3] and in data set [8] was “Non-Toxic” in each case. Also, the inhibition result in [4], in data set [6], in data set [9] and in [10] was “Active” throughout.

For `C[C@H](CCC(=O)NCCS(=O)(=O)O)[C@H]1CC[C@H]2[C@@H]3[C@@H](O)C[C@@H]4C[C@H](NS(=O)(=O)c5cccc6c(N(C)C)cccc56)CCC4(C)[C@H]3CC[C@]12C` (single isomer, unassigned), the outcome in data set [2], in [7], in data set [12] and in data set [11] was Active. The Activity entry in data set [3] and in [8] was “Non-Toxic” in each case. Further, the inhibition entry in data set [4], in data set [6], in [9], in data set [10] and in data set [13] was “Active” each time.
